Experimental findings from PubChem BioAssay (NCI) are described below.

Among the test systems are EKVX NSCLC; SF-268 CNS; UACC-257 melanoma; CAKI-1 renal; SK-OV-3 ovarian; SNB-19 CNS; TK-10 renal; NCI-H23 lung; UACC-62 melanoma; DU-145 prostate; MDA-MB-231 breast; HCT-15 colon; MCF7 breast; M14 melanoma; KM12 colon; MDA-N; A549 NSCLC; ACHN renal; OVCAR-4 ovarian.
What all share (assay): growth of human tumour cells (NCI), 48 h

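Each compound was tested at five concentrations against cells in 96-well plates for 48 hours. At the TGI there is no net growth.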

Consider `O=[N+]([O-])c1ccc2sc(/C=N/c3ccccn3)cc2c1`, for which the TGI is above 100 µM in the assay on EKVX NSCLC; 94 µM in the assay with SF-268 CNS; above 100 µM in the assay on UACC-257 melanoma; above 100 µM with CAKI-1 renal; above 100 µM in the assay with SK-OV-3 ovarian; above 100 µM in the assay on SNB-19 CNS. Besides, the TGI in the assay with TK-10 renal, in the assay on NCI-H23 lung, in the assay with UACC-62 melanoma, with DU-145 prostate, in the assay with MDA-MB-231 breast and with HCT-15 colon was above 100 µM in each case. Besides, the TGI with MCF7 breast, in the assay with M14 melanoma, with KM12 colon, in the assay with MDA-N, in the assay with A549 NSCLC and with ACHN renal was above 100 µM each time.

As to `COc1ccc(-c2csc(Cc3nc4c(Br)cc(Br)cc4c(=O)n3-c3ccc(OC)cc3)n2)cc1`, the TGI is above 100 µM in the assay on EKVX NSCLC; above 100 µM with UACC-257 melanoma; above 100 µM with CAKI-1 renal; above 100 µM in the assay on SK-OV-3 ovarian; 50.6 µM in the assay on SNB-19 CNS; above 100 µM with TK-10 renal. In addition, the TGI in the assay with OVCAR-4 ovarian, in the assay on NCI-H23 lung, with UACC-62 melanoma, with DU-145 prostate, with MDA-MB-231 breast and with HCT-15 colon was above 100 µM throughout. Moreover, the TGI was above 100 µM in the assay with MCF7 breast; 63.1 µM in the assay with M14 melanoma; above 100 µM in the assay on KM12 colon; above 100 µM with MDA-N; above 100 µM with A549 NSCLC; above 100 µM in the assay with ACHN renal.

`CC(=O)Oc1c2ccsc2c(OC(C)=O)c2ccsc12`: the TGI in the assay on EKVX NSCLC worked out at 3.63 µM; in the assay with SF-268 CNS it was 5.81 µM; in the assay with UACC-257 melanoma it was 0.4 µM; in the assay on CAKI-1 renal it was 3.66 µM; with SK-OV-3 ovarian it was 9.93 µM; in the assay with SNB-19 CNS, 3.17 µM. The TGI with TK-10 renal was determined as 4.2 µM; in the assay with OVCAR-4 ovarian, 1.73 µM; in the assay on NCI-H23 lung, 1.05 µM; in the assay on UACC-62 melanoma, 3.3 µM; with DU-145 prostate, 0.833 µM; in the assay on MDA-MB-231 breast it was 6.17 µM. Besides, the TGI in the assay with HCT-15 colon worked out at 1.74 µM; in the assay on MCF7 breast it was 2.31 µM; in the assay with M14 melanoma, 0.94 µM; in the assay with KM12 colon, 3.24 µM; in the assay with MDA-N it was 0.25 µM; in the assay with ACHN renal, 2.28 µM.

As to `C=CCOCn1cc(F)c(=O)[nH]c1=O`, the TGI in the assay on EKVX NSCLC, in the assay on SF-268 CNS, with UACC-257 melanoma, in the assay on CAKI-1 renal, in the assay with SK-OV-3 ovarian and in the assay with SNB-19 CNS was above 100 µM each time. In addition, the TGI in the assay with TK-10 renal, with NCI-H23 lung, in the assay with UACC-62 melanoma, with DU-145 prostate, in the assay on MDA-MB-231 breast and in the assay on HCT-15 colon was above 100 µM throughout. For the same compound, the TGI in the assay on MCF7 breast, in the assay on M14 melanoma, in the assay with KM12 colon, in the assay on MDA-N, with A549 NSCLC and in the assay on ACHN renal was above 100 µM in each case.

With `COC(=O)c1c(C)c2c(c(C)c1C(=O)OC)-c1c(C)ccc3ccc(C)c-2c13`, the TGI in the assay with EKVX NSCLC, in the assay on SF-268 CNS, in the assay on UACC-257 melanoma, with CAKI-1 renal, with SK-OV-3 ovarian and with SNB-19 CNS was above 100 µM throughout. Moreover, the TGI in the assay on TK-10 renal was above 100 µM; with OVCAR-4 ovarian it was above 100 µM; in the assay with UACC-62 melanoma, above 100 µM; in the assay with DU-145 prostate, above 100 µM; with MDA-MB-231 breast it was above 60.6 µM; with HCT-15 colon, above 55.6 µM. The TGI in the assay with MCF7 breast, with M14 melanoma, in the assay on KM12 colon, in the assay with MDA-N, in the assay on A549 NSCLC and with ACHN renal was above 100 µM in each case.

As to `COc1ccc(N=Nc2ccc3oc(=O)c(C(=O)Nc4ccccc4C)cc3c2)cc1`, the TGI in the assay on EKVX NSCLC, in the assay on SF-268 CNS, in the assay on UACC-257 melanoma, in the assay on CAKI-1 renal, in the assay on SK-OV-3 ovarian and with TK-10 renal was above 10 µM each time. The TGI in the assay on OVCAR-4 ovarian, in the assay on NCI-H23 lung, in the assay with DU-145 prostate, in the assay with MDA-MB-231 breast, with HCT-15 colon and in the assay on MCF7 breast was above 10 µM in each case. In addition, the TGI in the assay with M14 melanoma, in the assay on KM12 colon, in the assay with MDA-N and in the assay with ACHN renal was above 10 µM in each case.

Consider `O=c1[nH][nH]c(=O)n1/N=C/c1ccccc1`, for which the TGI in the assay with EKVX NSCLC, in the assay with SF-268 CNS, in the assay with UACC-257 melanoma, with CAKI-1 renal, in the assay on SK-OV-3 ovarian and with SNB-19 CNS was above 100 µM each time. Further, the TGI in the assay on TK-10 renal, in the assay on NCI-H23 lung, with UACC-62 melanoma, with DU-145 prostate, with MDA-MB-231 breast and in the assay with HCT-15 colon was above 100 µM in each case. Besides, the TGI in the assay on MCF7 breast, in the assay with M14 melanoma, with KM12 colon, with MDA-N, in the assay on A549 NSCLC and in the assay on ACHN renal was above 100 µM each time.

`CCOC(=O)C1C(c2ccc(OC)cc2)c2c([nH][nH]c2=O)CC1(C)O` (configuration not stated): the TGI in the assay with EKVX NSCLC, with SF-268 CNS, with UACC-257 melanoma, in the assay on CAKI-1 renal, with SNB-19 CNS and in the assay on TK-10 renal was above 100 µM in each case. Moreover, the TGI in the assay on OVCAR-4 ovarian, in the assay with NCI-H23 lung, in the assay with UACC-62 melanoma, with DU-145 prostate, with MDA-MB-231 breast and with HCT-15 colon was above 100 µM throughout. In addition, the TGI in the assay with MCF7 breast, in the assay with M14 melanoma, in the assay with KM12 colon, in the assay with MDA-N, in the assay with A549 NSCLC and with ACHN renal was above 100 µM each time.
